The results in this text go back to ChEMBL document CHEMBL1201862, “PubChem BioAssay data set” (2004).

Among the test systems are SK-MEL-5; K562; A498; CAKI-1; MDA-MB-435; HOP-62; NCI-H23; CCRF-CEM; HCT-116; SF-295; Malme-3M; OVCAR-3; A549; OVCAR-4; SR; HCC 2998; NCI/ADR-RES; MOLT-4; ACHN; RPMI-8226.
Common to all, as to experiment: DTP human tumour cell line panel, 48 h

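Protocol summary: plate cells (96-well), add compound at 5 concentrations, incubate 48 h, interpolate endpoints linearly. GI50: concentration for 50% inhibition of growth.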 Active and inactive are the calls of the source. No stated cut-off is given here; in the data, active = GI50 up to about 1.1 µM and inactive = higher. Where only a bound is given, the exact number is not on record here.

On to `Oc1cc(Cl)cc2cc(Br)cnc12`, for which the GI50 in the assay with SK-MEL-5 is 1.53 µM (inactive); in the assay on K562 it was 1.69 µM (inactive); in the assay on A498, 27.7 µM (inactive); in the assay on CAKI-1, 6.79 µM (inactive); with MDA-MB-435 it was 4.65 µM (inactive); in the assay with HOP-62 it was 3.4 µM (inactive). Also, the GI50 was 4.39 µM (inactive) in the assay on NCI-H23; 1.9 µM (inactive) in the assay on CCRF-CEM; 1.09 µM (active) with HCT-116; 2.96 µM (inactive) in the assay with SF-295; 2.23 µM (inactive) in the assay on Malme-3M; 1.52 µM (inactive) with OVCAR-3. The GI50 in the assay with A549 was 3.27 µM (inactive); with OVCAR-4, 3.49 µM (inactive); in the assay on SR it was 1.42 µM (inactive); with HCC 2998, 15.6 µM (inactive); in the assay with NCI/ADR-RES, 2.06 µM (inactive); in the assay with MOLT-4, 2.04 µM (inactive). Moreover, the GI50 in the assay on ACHN is 1.88 µM (inactive); in the assay on RPMI-8226 it was 1.42 µM (inactive).

For `COC(=O)C1(F)C(=O)NC(=O)NC1O` (stereo not given), the GI50 was > 100 µM (inactive) in the assay with SK-MEL-5; > 84.5 µM (inactive) in the assay on K562; > 100 µM (inactive) with A498; 97.9 µM (inactive) with CAKI-1; > 100 µM (inactive) with MDA-MB-435; > 100 µM (inactive) in the assay with HOP-62. For the same molecule, the GI50 is > 100 µM (inactive) in the assay on NCI-H23; > 89.1 µM (inactive) in the assay on CCRF-CEM; 50.8 µM (inactive) with HCT-116; > 100 µM (inactive) in the assay on SF-295; > 100 µM (inactive) with Malme-3M; 62.7 µM (inactive) in the assay on OVCAR-3. For the same molecule, the GI50 in the assay on A549 was 90.8 µM (inactive); with OVCAR-4 it was 80 µM (inactive); in the assay with SR, > 53 µM (inactive); in the assay with HCC 2998 it was > 45.9 µM (inactive); in the assay with NCI/ADR-RES, > 100 µM (inactive); in the assay with MOLT-4, 31.8 µM (inactive). Also, the GI50 is > 75 µM (inactive) in the assay with ACHN and > 100 µM (inactive) with RPMI-8226.

As for `CC/C=C/C[C@H](O[Si](C)(C)C(C)(C)C)[C@H]1C[C@H]2O[C@H]([C@@H](O)C#C[Si](C)(C)C)C[C@H]2O1`, the GI50 with SK-MEL-5 is 6.78 µM (inactive); in the assay on K562 it was 13.9 µM (inactive); with A498 it was 17.9 µM (inactive); in the assay with CAKI-1, 11.3 µM (inactive); in the assay on MDA-MB-435, 12.3 µM (inactive); in the assay on HOP-62, 16.1 µM (inactive). Besides, the GI50 was 12 µM (inactive) with NCI-H23; 21.5 µM (inactive) in the assay with CCRF-CEM; 12.1 µM (inactive) with HCT-116; 14.3 µM (inactive) in the assay on SF-295; 11.9 µM (inactive) in the assay with Malme-3M; 14.8 µM (inactive) in the assay on OVCAR-3. Further, the GI50 in the assay on A549 is 10.1 µM (inactive); in the assay on OVCAR-4 it was 5.85 µM (inactive); in the assay on SR, 2.31 µM (inactive); with HCC 2998, 15.9 µM (inactive); with NCI/ADR-RES, 13.3 µM (inactive); with MOLT-4 it was 12.6 µM (inactive). For the same molecule, the GI50 is 15.2 µM (inactive) in the assay with ACHN and 12.9 µM (inactive) in the assay with RPMI-8226.

As to `CC1OC(n2cc(F)c(=O)[nH]c2=O)CCC1O` (stereo not given), the GI50 in the assay with SK-MEL-5 was > 56.2 µM (inactive); with K562, > 100 µM (inactive); with A498, > 66.5 µM (inactive); in the assay on CAKI-1, > 91.6 µM (inactive); in the assay with MDA-MB-435, > 100 µM (inactive); in the assay with HOP-62 it was > 87.1 µM (inactive). Besides, the GI50 is > 100 µM (inactive) in the assay with NCI-H23; > 100 µM (inactive) with CCRF-CEM; 78 µM (inactive) in the assay with HCT-116; > 84.5 µM (inactive) with SF-295; 99.8 µM (inactive) in the assay with Malme-3M; > 100 µM (inactive) in the assay on OVCAR-3. Also, the GI50 in the assay with A549 is 67.5 µM (inactive); in the assay on OVCAR-4, > 100 µM (inactive); in the assay with SR it was > 94 µM (inactive); with HCC 2998, 30.1 µM (inactive); in the assay on NCI/ADR-RES it was > 100 µM (inactive); in the assay with MOLT-4 it was > 100 µM (inactive). Further, the GI50 is > 95.9 µM (inactive) with ACHN and 56.1 µM (inactive) with RPMI-8226.
